According to US20220305079A1, “THERAPEUTIC PEPTIDES” (COHBAR, INC., priority 2019, published 2022):
Square brackets hold non-standard residues; d marks the D form. Ends that are not written are not given here.

What was measured:
[1] = tested on: Mouse 3T3-L1 adipocytes; assay: Free Fatty Acid Levels in 3T3-L1 Adipocytes; details: for Free Fatty Acid Levels in 3T3-L1 Adipocytes Expressed as a Percent Isoproterenol Control, Percent of Control Activity: test peptides 25 μM, 20-22 hours then isoproterenol (1 nM) 3 hours
Protocol: Mouse 3T3-L1 adipocytes were seeded at 3,000 cells per well in 96-well plates in Pre-adipocyte Medium (Zen-Bio, Durham, N.C.) and grown to confluence at 37° C. in a humidified atmosphere of 5% CO2/95% air. Two days after confluence, cells were placed in Adipocyte Differentiation Medium (Zen-Bio, Durham, N.C.) and cultured for three additional days at 37° C. in a humidified atmosphere of 5% CO2/95% air. The culture media was then replaced with Adipocyte Maintenance Medium (Zen-Bio) and the cells maintained for an additional 9-12 days at 37° C. in a humidified atmosphere of 5% CO2/95% air with partial medium replacement every other day. Following 12-15 days' differentiation, test peptides were added to a final concentration of 25 μM and incubated for 20-22 hours in Adipocyte Maintenance Medium. After 20-22 hours, isoproterenol (1 nM) was added to all wells except untreated controls and test peptides were replenished. Cells were incubated for a further 3 hours in Assay Buffer (Zen-Bio). Free fatty acid concentrations in the media were determined using a Free Fatty Acid Assay Kit (Zen-Bio) according to the manufacturer's instructions using a plate reader (540 nm). Absorbance values were corrected for untreated background and expressed relative to isoproterenol treated cells. Treatment with isoproterenol (1 nM) alone was used as the free fatty acid level stimulatory control. The relative standard deviation of the isoproterenol control was <10%.

[2] = tested on: MCF-7 human breast cancer cell line; assay: MTS Assay in MCF-7 Cells (cell viability); details: test peptides at 10 μM, 72 hours, relative to DMSO control
Protocol: (§1) Peptides and reference compound staurosporine (Selleckchem) were dissolved with DMSO at 10 mM stock. CellTiter 96® AQueous One Solution Reagent (MTS assay reagent) was purchased from Promega (Madison, Wis.). MCF-7 human breast cancer cell line was purchased from American Type Culture Collection (Manassas, Va.). MCF-7 cells were grown in EMEM Medium supplemented with 10% FBS and 0.01 mg/ml human recombinant insulin. 100 μg/ml penicillin and 100 μg/ml streptomycin were added to the culture medium. […] 5 μl of CellTiter 96® AQueous One Solution Reagent (MTS assay reagent) was added to each well and incubated at 37° C., 5% CO2 for 5 hours. Absorbance at 492 nm was recorded by Envision 2104 Multilabel Reader. Treatment with DMSO alone was used as the cell viability activity control.

[3] = tested on: MDA-MB-231 human breast cancer cell line; assay: MTS Assay in MDA-MB-231 Cells (cell viability); type: cell-based; details: 72 hours, relative to DMSO control; test concentration not given
Protocol: (§2) Test compounds and reference compound staurosporine (Selleckchem) were all dissolved with DMSO at 10 mM stock. […] Activity was calculated relative to DMSO control. […] Cell viability was 3% of the DMSO control value for Staurosporine (10 uM).

[4] = tested on: MDA-MB-231 human breast cancer cell line; assay: Caspase 3/7 Activity in MDA-MB-231 Cells (Caspase-Glo 3/7 Assay); type: cell-based; details: test peptides at 10 μM, 18 hours, relative to DMSO control
Protocol: The effect of the peptides on cell death/survival can be assessed using a caspase-3 assay. Peptides were dissolved with DMSO at 10 mM stock. […] Staurosporine (Selleckchem) was dissolved with DMSO at 1 mM stock. Caspase-Glo 3/7 Assay Reagent was purchased from Promega (Madison, Wis.). MDA-MB-231 human breast cancer cell line was purchased from American Type Culture Collection (Manassas, Va.). MDA-MB-231 cells were grown in DMEM Medium supplemented with 10% FBS. 100 μg/ml penicillin and 100 μg/ml streptomycin were added to the culture medium. […] 25 μl of Caspase-Glo 3/7 Assay Reagent was added to each well and incubated at 37° C., 5% CO2 for 1 hour. Luminescence for each sample well on the plate was measured by Envision 2104 Multilabel Reader (PerkinElmer, Santa Clara, Calif.). Activity was calculated relative to DMSO control.

[5] = MTS Assay in MCF-7 Cells (cell viability); details: human
Protocol: as §1

[6] = MTS Assay in MDA-MB-231 Cells (cell viability); type: cell-based, human; details: human; Staurosporine 10 uM, positive control, MDA-MB-231 cells; read-out: Cell viability, % of the DMSO control value
Protocol: as §2

Compound | Free Fatty Acid Levels in 3T3-L1 Adipocytes Expressed as a Percent Isoproterenol Control, Percent of Control Activity [1] | further results
2 (MTHQSHAYHIVKPSP) [compound 2] | 95% | MTS Assay in MCF-7 Cells, Percent of Control Activity [2]: 71%; MTS Assay in MDA-MB-231 Cells, Percent of Control Activity [3]: 85%; Caspase 3/7 Activity in MDA-MB-231 Cells, Percent of Control Activity [4]: 51%
3 (THQSHAYHIVKPSP; not fully specified) [compound 3] | 118% | –
4 (THQSH[dA]YHIVKPSP) [compound 4] | 134% | –
5 (HQSH[dA]YHIVKPSP) [compound 5] | 111% | –
7 (MWFDYFCMSPSIDEGLTLLV) [compound 7] | 104% | MTS Assay in MCF-7 Cells, Percent of Control Activity [2]: 63%; MTS Assay in MDA-MB-231 Cells, Percent of Control Activity [3]: 81%; Caspase 3/7 Activity in MDA-MB-231 Cells, Percent of Control Activity [4]: 29%
8 (WFDYFCMSPSIDEGLTLLV) [compound 8] | 45% | –
9 (WFDYFCMSPSIDEGLTL) [compound 9] | 35% | –
10 (WFDYFAMSPSADEGLTL) [compound 10] | 55% | –
12 (MVKGDSKYSEACRRVK) [compound 12] | 135% | MTS Assay in MCF-7 Cells, Percent of Control Activity [2]: 50%; MTS Assay in MDA-MB-231 Cells, Percent of Control Activity [3]: 80%; Caspase 3/7 Activity in MDA-MB-231 Cells, Percent of Control Activity [4]: 52%
13 (VKGDSKYSEACRRVK) [compound 13] | 113% | –
14 (VKGDSKYSEACRRV) [compound 14] | 112% | –
15 (VKGDSKYSEACR) [compound 15] | 128% | –
17 (MVLFFRSSKLQYGRLFRSLVG) [compound 17] | 75% | MTS Assay in MCF-7 Cells, Percent of Control Activity [2]: 40%; MTS Assay in MDA-MB-231 Cells, Percent of Control Activity [3]: 75%; Caspase 3/7 Activity in MDA-MB-231 Cells, Percent of Control Activity [4]: 43%
18 (VLFFRSSKLQYGRLFRSLVG) [compound 18] | 84% | –
19 (VLFFRSSKLQYGRLFRSLA) [compound 19] | 95% | –
20 (LFFRSSKLQYGRLFRSA) [compound 20] | 73% | –
22 (MVWLRLSGSKVEWVWG) [compound 22] | 93% | MTS Assay in MCF-7 Cells, Percent of Control Activity [2]: 47%; MTS Assay in MDA-MB-231 Cells, Percent of Control Activity [3]: 75%; Caspase 3/7 Activity in MDA-MB-231 Cells, Percent of Control Activity [4]: 31%
23 (VWLRLSGSKVEWVWG) [compound 23] | 71% | –
24 (VWLRLSGSKVEWVW; not fully specified) [compound 24] | 81% | –
25 ([dA]WLRLSGSKVEWV) [compound 25] | 93% | –
CN[C@@H]1C[C@H]2O[C@@](C)([C@@H]1OC)n1c3ccccc3c3c4c(c5c6ccccc6n2c5c31)C(=O)NC4 [staurosporine, reference compound] | – | viability at 72 h, 10 µM [5]: < 5%; viability at 72 h, 10 µM [6]: 3%
insulin [reference compound] | – | Free fatty acid levels, % of the isoproterenol control value ([1]; insulin 100 nM, positive control): < 5%
